Data as given in ChEMBL document CHEMBL3045035, “Synthesis and insect antifeedant activity of stilbene derivatives against Brontispa longissima Larvae” (2013).

Tests used:
Brontispa longissima [1] = assay: Antifeedant activity against third-instar larval stage of Brontispa longissima in […] assessed as decrease in leaf surface consumption treated for 30 secs prior to larval infestation measured after 48 hr by leaf-dipping method; format: functional
Brontispa longissima [2] = assay: Ratio of compound AFC50 to combrestatin A-4 AFC50 for third-instar larval stage of Brontispa longissima; format: functional

Work on COc1ccc(/C=C(/C#N)c2cc(OC)c(OC)c(OC)c2)cc1O yielded an AFC50 (Brontispa longissima [1]) of 0.431 mg/mL and a pAFC50 (Brontispa longissima [1]) of 0.36.
COc1ccc(/C=C(/C(=O)O)c2cc(OC)c(OC)c(OC)c2)cc1O was tested, and the Ratio (Brontispa longissima [2]) was 7, the AFC50 (Brontispa longissima [1]) was 1.461 mg/mL and the pAFC50 (Brontispa longissima [1]) was -0.17.
Compound COC(=O)/C(=C/c1ccc(OC)c(O)c1)c1cc(OC)c(OC)c(OC)c1 has a Ratio (Brontispa longissima [2]) of 7, an AFC50 (Brontispa longissima [1]) of 1.453 mg/mL and a pAFC50 (Brontispa longissima [1]) of -0.16.
With O=[N+]([O-])c1ccc(/C=C\c2ccc(O)cc2)cc1 the AFC50 (Brontispa longissima [1]) was 1.185 mg/mL and the pAFC50 (Brontispa longissima [1]) was -0.07.
COc1ccc(/C=C\c2ccc(O)cc2)cc1[N+](=O)[O-] showed an AFC50 (Brontispa longissima [1]) of 1.301 mg/mL and a pAFC50 (Brontispa longissima [1]) of -0.11.
For COc1ccc(/C=C\c2ccc(OC(C)=O)cc2)cc1OC(C)=O, the AFC50 (Brontispa longissima [1]) was 2.501 mg/mL and the pAFC50 (Brontispa longissima [1]) was -0.4.
For CC(=O)Oc1ccc(/C=C\c2ccc(OC(C)=O)c(OC(C)=O)c2)cc1, the AFC50 (Brontispa longissima [1]) was 0.64 mg/mL and the pAFC50 (Brontispa longissima [1]) was 0.19.
With Oc1ccc(/C=C\c2ccc3c(c2)OCO3)cc1 the AFC50 (Brontispa longissima [1]) was 1.005 mg/mL and the pAFC50 (Brontispa longissima [1]) was 0.
Compound COc1ccc(/C=C(/CO)c2cc(OC)c(OC)c(OC)c2)cc1O has an AFC50 (Brontispa longissima [1]) of 0.226 mg/mL and a pAFC50 (Brontispa longissima [1]) of 0.65.
COc1ccc(/C=C(/C(N)=O)c2cc(OC)c(OC)c(OC)c2)cc1O gave an AFC50 (Brontispa longissima [1]) of 0.736 mg/mL and a pAFC50 (Brontispa longissima [1]) of 0.13.
Compound COc1cc(/C=C\c2ccc([N+](=O)[O-])cc2[N+](=O)[O-])cc(OC)c1OC has a Ratio (Brontispa longissima [2]) of 5, an AFC50 (Brontispa longissima [1]) of 1.05 mg/mL and a pAFC50 (Brontispa longissima [1]) of -0.02.
For COc1cc(/C=C\c2cc(Cl)cc(Cl)c2)cc(OC)c1OC, the Ratio (Brontispa longissima [2]) was 5, the AFC50 (Brontispa longissima [1]) was 2.234 mg/mL and the pAFC50 (Brontispa longissima [1]) was -0.35.
COc1cc(/C=C\c2ccc(OC(C)=O)c(OC(C)=O)c2)cc(OC)c1OC showed an AFC50 (Brontispa longissima [1]) of 1.918 mg/mL and a pAFC50 (Brontispa longissima [1]) of -0.28.
Compound COc1cc(/C=C\c2ccc3c(c2)OCO3)cc(OC)c1OC has an AFC50 (Brontispa longissima [1]) of 0.731 mg/mL and a pAFC50 (Brontispa longissima [1]) of 0.14.
For Oc1ccc(/C=C\c2ccccc2)cc1, the AFC50 (Brontispa longissima [1]) was 1.161 mg/mL and the pAFC50 (Brontispa longissima [1]) was -0.06.
In the case of COc1ccc(/C=C\c2ccc(OC(C)=O)cc2)cc1, the AFC50 (Brontispa longissima [1]) is reported as 0.732 mg/mL and the pAFC50 (Brontispa longissima [1]) is reported as 0.14.
For Oc1ccc(/C=C\c2ccc(Cl)cc2)cc1, the AFC50 (Brontispa longissima [1]) was 0.412 mg/mL and the pAFC50 (Brontispa longissima [1]) was 0.39.
With COc1cc(/C=C\c2ccc(Cl)cc2)cc(OC)c1OC the AFC50 (Brontispa longissima [1]) was 1.634 mg/mL and the pAFC50 (Brontispa longissima [1]) was -0.21.
Compound COc1ccc(/C=C\c2cc(OC)c(OC)c(OC)c2)cc1 has an AFC50 (Brontispa longissima [1]) of 0.327 mg/mL and a pAFC50 (Brontispa longissima [1]) of 0.48.
COc1cc(/C=C\c2ccc([N+](=O)[O-])cc2)cc(OC)c1OC showed a Ratio (Brontispa longissima [2]) of 3, an AFC50 (Brontispa longissima [1]) of 0.982 mg/mL and a pAFC50 (Brontispa longissima [1]) of 0.01.
Compound COc1cc(/C=C\c2ccccc2)cc(OC)c1OC has an AFC50 (Brontispa longissima [1]) of 0.529 mg/mL and a pAFC50 (Brontispa longissima [1]) of 0.28.
For COc1cc(/C=C\c2ccc(OC(C)=O)cc2)cc(OC)c1OC, the Ratio (Brontispa longissima [2]) was 3, the AFC50 (Brontispa longissima [1]) was 0.843 mg/mL and the pAFC50 (Brontispa longissima [1]) was 0.07.
Work on COc1cc(/C=C\c2ccc(O)cc2)cc(OC)c1OC yielded an AFC50 (Brontispa longissima [1]) of 1.261 mg/mL and a pAFC50 (Brontispa longissima [1]) of -0.1.
COc1ccc(/C=C\c2cc(OC)c(OC)c(OC)c2)cc1O [COMBRETASTATIN A4] was tested, and the AFC50 (Brontispa longissima [1]) was 0.218 mg/mL and the pAFC50 (Brontispa longissima [1]) was 0.66.
COc1ccc(/C=C/c2cc(OC)c(OC)c(OC)c2)cc1O [E-COMBRETASTATIN A-4] showed an AFC50 (Brontispa longissima [1]) of 0.357 mg/mL and a pAFC50 (Brontispa longissima [1]) of 0.45.
For Oc1ccc(/C=C/c2cc(O)cc(O)c2)cc1 [RESVERATROL], the AFC50 (Brontispa longissima [1]) was 0.816 mg/mL.
